Reference: PMC12602695 (Nature Communications, 2025)

Tested on: AcTPS2
Assay: product formation, ethyl acetate extraction, Michaelis-Menten fit
Assay type: biochemical, Astilbe chinensis
Details: 50 mM Tris-HCl pH 7.5, 1 mM MgCl2, 2 mM DTT, 12.5% glycerol, 0.1% Tween 20, 30 °C, 1 h

- Km: 23.8 µM
SMILES: CC(C)=CCC/C(C)=C/CC/C(C)=C/COP(=O)(O)OP(=O)(O)O [FPP, farnesyl diphosphate]
